Reference: the NIST ThermoML archive (doi:10.1016/j.jct.2013.08.010)
± gives the expanded uncertainty stated by the source.

Test: mn = molality of the nth substance listed, in mol/kg
Details: 101 kPa, Liquid; for speed of sound: Sing-around technique in a fixed-path interferometer; for mass density: Vibrating tube method

C[C@H](N)C(=O)O [(S)-2-aminopropanoic acid] + O
Details | mass density, 288.15 K [kg/m3] | mass density, 298.15 K [kg/m3] | mass density, 308.15 K [kg/m3] | mass density, 318.15 K [kg/m3] | speed of sound, 288.15 K [m/s] | speed of sound, 298.15 K [m/s] | speed of sound, 308.15 K [m/s] | speed of sound, 318.15 K [m/s]
m1 = 0.00939 | 999.393 ± 0.16 | 997.32 ± 0.16 | 994.294 ± 0.16 | 990.395 ± 0.16 | 1467.6 ± 2.2 | 1497.9 ± 2.2 | 1520.8 ± 2.2 | 1537 ± 2.2
m1 = 0.04689 | 1000.52 ± 0.16 | 998.405 ± 0.16 | 995.339 ± 0.16 | 991.404 ± 0.16 | 1469.9 ± 2.2 | 1499.8 ± 2.2 | 1522.7 ± 2.2 | 1539.2 ± 2.2
m1 = 0.09896 | 1002.07 ± 0.16 | 999.9 ± 0.16 | 996.777 ± 0.16 | 992.791 ± 0.16 | 1472.8 ± 2.2 | 1502.8 ± 2.2 | 1525.5 ± 2.2 | 1542 ± 2.2
m1 = 0.2003 | 1005.04 ± 0.16 | 1002.78 ± 0.16 | 999.545 ± 0.16 | 995.459 ± 0.16 | 1480.3 ± 2.2 | 1509.6 ± 2.2 | 1531.8 ± 2.2 | 1547.9 ± 2.2
m1 = 0.2979 | 1007.86 ± 0.16 | 1005.5 ± 0.16 | 1002.16 ± 0.16 | 997.981 ± 0.16 | 1487.3 ± 2.2 | 1515.9 ± 2.2 | 1537.9 ± 2.2 | 1553.2 ± 2.2
m1 = 0.3997 | 1010.74 ± 0.17 | 1008.28 ± 0.16 | 1004.85 ± 0.16 | 1000.56 ± 0.16 | 1494.3 ± 2.2 | 1522.7 ± 2.2 | 1544 ± 2.2 | 1558.7 ± 2.2
m1 = 0.4941 | 1013.38 ± 0.17 | 1010.81 ± 0.17 | 1007.28 ± 0.16 | 1002.91 ± 0.16 | 1500.3 ± 2.2 | 1528 ± 2.2 | 1549 ± 2.2 | 1564.1 ± 2.2
m1 = 0.6099 | 1016.55 ± 0.17 | 1013.87 ± 0.17 | 1010.22 ± 0.17 | 1005.75 ± 0.16 | 1509.5 ± 2.2 | 1536.7 ± 2.2 | 1556.8 ± 2.2 | 1571.4 ± 2.2
m1 = 0.6973 | 1018.88 ± 0.17 | 1016.12 ± 0.17 | 1012.38 ± 0.17 | 1007.84 ± 0.17 | 1513.3 ± 2.2 | 1540.4 ± 2.2 | 1560.7 ± 2.2 | 1574.7 ± 2.2
m1 = 0.7978 | 1021.55 ± 0.17 | 1018.68 ± 0.17 | 1014.85 ± 0.17 | 1010.19 ± 0.17 | 1520 ± 2.2 | 1546.2 ± 2.2 | 1566 ± 2.2 | 1580.9 ± 2.2
